Laboratory results: patent US20260285850A1, “SUBSTITUTED OXAZOLIDINONES AND IMIDAZOLINONES AS HERBICIDES” (FMC CORPORATION, priority 2023, published 2026)

Columns and labels:
Type in all cases: in vivo
[1] = system: green foxtail (Setaria viridis); assay: Test A postemergence application, visual injury rating 0-100
In short: (§1)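 Compounds formulated in a non-phytotoxic solvent with surfactant are sprayed onto soil of freshly planted loam-sand pots ahead of emergence, or onto emerged plants 2-10 cm tall. After a 10-day greenhouse period, each species is scored visually for injury against untreated controls.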

[2] = system: horseweed (Erigeron canadensis); assay: as above
In short: as §1

soybean (Glycine max) [3] = assay: as above
In short: as §1

[4] = system: palmer (palmer amaranth, palmer pigweed, Amaranthus palmeri); assay: as above
In short: as §1

kochia (Bassia scoparia) [5] = assay: as above
In short: as §1

corn (Zea mays) [6] = assay: as above
In short: as §1

[7] = system: ryegrass, Italian (italian ryegrass, Lolium multiflorum); assay: as above
In short: as §1

[8] = system: wheat (Triticum aestivum); assay: as above
In short: as §1

[9] = system: ragweed (common ragweed, Ambrosia artemisiifolia); assay: as above
In short: as §1

[10] = system: blackgrass (Alopecurus myosuroides); assay: as above
In short: as §1

[11] = system: oat, wild (wild oat, Avena fatua); assay: as above
In short: as §1

[12] = system: barnyardgrass (Echinochloa crus-galli); assay: as above
In short: as §1

[13] = system: galium (catchweed bedstraw, Galium aparine); assay: as above
In short: as §1

[14] = system: ducksalad (Heteranthera limosa); assay: Test B flooded paddy test, visual plant response rating 0-100; settings: 250 g ai/ha, Flood, applied to paddy water, evaluated after 13 days
In short: (§2)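 Treatment occurs at the 2-leaf stage by adding compound to floodwater standing 3 cm above the soil, a level kept for the whole test. Plants stay in the greenhouse 13 days before visual comparison with controls.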

[15] = system: barnyardgrass (Echinochloa crusgalli); assay: as above; settings: 250 g ai/ha, Flood, applied to paddy water, evaluated after 13 days
In short: as §2

rice (Oryza sativa) = assay: as above; settings: 250 g ai/ha, Flood, applied to paddy water, evaluated after 13 days
In short: as §2

[16] = system: sedge, umbrella (small-flower umbrella sedge, Cyperus difformis); assay: as above; settings: 250 g ai/ha, Flood, applied to paddy water, evaluated after 13 days
In short: as §2

[17] = system: green foxtail (Setaria viridis); assay: Test A preemergence soil spray, visual injury rating 0-100; settings: 10 days
In short: as §1

soybean (Glycine max) [18] = assay: as above; settings: 10 days
In short: as §1

[19] = system: palmer (palmer amaranth, palmer pigweed, Amaranthus palmeri); assay: as above; settings: 10 days
In short: as §1

kochia (Bassia scoparia) [20] = assay: as above; settings: 10 days
In short: as §1

corn (Zea mays) [21] = assay: as above; settings: 10 days
In short: as §1

[22] = system: ryegrass, Italian (italian ryegrass, Lolium multiflorum); assay: as above; settings: 10 days
In short: as §1

[23] = system: wheat (Triticum aestivum); assay: as above; settings: 10 days
In short: as §1

[24] = system: ragweed (common ragweed, Ambrosia artemisiifolia); assay: as above; settings: 10 days
In short: as §1

[25] = system: blackgrass (Alopecurus myosuroides); assay: as above; settings: 10 days
In short: as §1

[26] = system: oat, wild (wild oat, Avena fatua); assay: as above; settings: 10 days
In short: as §1

[27] = system: barnyardgrass (Echinochloa crus-galli); assay: as above; settings: 10 days
In short: as §1

[28] = 62 g ai/ha, postemergence, 10 days, 0 = no effect, 100 = complete control
[29] = Postemergence, 16 g ai/ha, greenhouse 10 days, 0 no effect, 100 complete control
[30] = 62 g ai/ha, 0 = no effect, 100 = complete control

## C=CC1(C(=O)NC2CC(C(=O)OC)C2)CN(c2cc(F)cc(F)c2)C(=O)O1 (stereo not shown) [Compound 172]
[1]; [28]
  Foxtail, Green plant response rating (0-100): 90
[1]; [29]
  Foxtail, Green plant response rating (0 to 100 scale): 80
[2]; [28]
  Horseweed plant response rating (0-100): 10
[2]; [29]
  Horseweed plant response rating (0 to 100 scale): 0
Soybean (Glycine max) [3]; [28]
  Soybean plant response rating (0-100): 80
Soybean (Glycine max) [3]; [29]
  Soybean plant response rating (0 to 100 scale): 80
[4]; [28]
  Pigweed, Palmer plant response rating (0-100): 60
[4]; [29]
  Pigweed, Palmer plant response rating (0 to 100 scale): 10
Kochia (Bassia scoparia) [5]; [28]
  Kochia plant response rating (0-100): 90
Kochia (Bassia scoparia) [5]; [29]
  Kochia plant response rating (0 to 100 scale): 90
Corn (Zea mays) [6]; [28]
  Corn plant response rating (0-100): 100
Corn (Zea mays) [6]; [29]
  Corn plant response rating (0 to 100 scale): 100
[7]; [28]
  Ryegrass, Italian plant response rating (0-100): 90
[7]; [29]
  Ryegrass, Italian plant response rating (0 to 100 scale): 80
[8]; [28]
  Wheat plant response rating (0-100): 90
[8]; [29]
  Wheat plant response rating (0 to 100 scale): 90
[9]; [28]
  Ragweed plant response rating (0-100): 20
[9]; [29]
  Ragweed plant response rating (0 to 100 scale): 10
[10]; [28]
  Blackgrass plant response rating (0-100): 90
[10]; [29]
  Blackgrass plant response rating (0 to 100 scale): 90
[11]; [28]
  Oat, Wild plant response rating (0-100): 90
[11]; [29]
  Oat, Wild plant response rating (0 to 100 scale): 90
[12]; [28]
  Barnyardgrass plant response rating (0-100): 90
[12]; [29]
  Barnyardgrass plant response rating (0 to 100 scale): 80
[13]; [28]
  Galium plant response rating (0-100): 90
[13]; [29]
  Galium plant response rating (0 to 100 scale): 90
[14]
  Plant response rating, Ducksalad (0 to 100 scale, 0 is no effect and 100 is complete control): 80
[15]
  Plant response rating, Barnyardgrass (0 to 100 scale, 0 is no effect and 100 is complete control): 95
Rice (Oryza sativa)
  Plant response rating, Rice (0 to 100 scale, 0 is no effect and 100 is complete control): 70
[16]
  Plant response rating, Sedge, Umbrella (0 to 100 scale, 0 is no effect and 100 is complete control): 100
[17]; 16 g ai/ha, 0 to 100 scale
  Foxtail, Green plant response rating: 40
[17]; [30]
  Foxtail, Green plant response rating (0-100): 100
Soybean (Glycine max) [18]; 16 g ai/ha, 0 to 100 scale
  Soybean plant response rating: 0
Soybean (Glycine max) [18]; [30]
  Soybean plant response rating (0-100): 70
[19]; 16 g ai/ha, 0 to 100 scale
  Pigweed, Palmer plant response rating: 10
[19]; [30]
  Pigweed, Palmer plant response rating (0-100): 60
Kochia (Bassia scoparia) [20]; 16 g ai/ha, 0 to 100 scale
  Kochia plant response rating: 0
Kochia (Bassia scoparia) [20]; [30]
  Kochia plant response rating (0-100): 100
Corn (Zea mays) [21]; 16 g ai/ha, 0 to 100 scale
  Corn plant response rating: 80
Corn (Zea mays) [21]; [30]
  Corn plant response rating (0-100): 90
[22]; 16 g ai/ha, 0 to 100 scale
  Ryegrass, Italian plant response rating: 40
[22]; [30]
  Ryegrass, Italian plant response rating (0-100): 90
[23]; 16 g ai/ha, 0 to 100 scale
  Wheat plant response rating: 90
[23]; [30]
  Wheat plant response rating (0-100): 100
[24]; 16 g ai/ha, 0 to 100 scale
  Ragweed plant response rating: 0
[24]; [30]
  Ragweed plant response rating (0-100): 0
[25]; 16 g ai/ha, 0 to 100 scale
  Blackgrass plant response rating: 50
[25]; [30]
  Blackgrass plant response rating (0-100): 90
[26]; 16 g ai/ha, 0 to 100 scale
  Oat, Wild plant response rating: 30
[26]; [30]
  Oat, Wild plant response rating (0-100): 90
[27]; 16 g ai/ha, 0 to 100 scale
  Barnyardgrass plant response rating: 0
[27]; [30]
  Barnyardgrass plant response rating (0-100): 90
